Experimental data: ChEMBL document CHEMBL4477195, “Bridged Epipolythiodiketopiperazines from Penicillium raciborskii, an Endophytic Fungus of Rhododendron tomentosum Harmaja” (2016)
Activity calls are given as the source filed them. The rule behind the calls is not given here.

Experiments:
Fusarium oxysporum [1] = assay: Antifungal activity against Fusarium oxysporum assessed as fungal growth inhibition at 0.38 mM incubated in dark for 48 hrs by microspectrophotometric analysis; assay type: functional, organism-based
Verticillium dahliae [2] = assay: Antifungal activity against Verticillium dahliae assessed as fungal growth inhibition at 10 to 400 ug/mL incubated in dark for 48 hrs by microspectrophotometric analysis; assay type: functional
Botrytis cinerea [3] = assay: Antifungal activity against Botrytis cinerea assessed as fungal growth inhibition at 0.76 mM incubated in dark for 48 hrs by microspectrophotometric analysis; assay type: functional, organism-based
Botrytis cinerea [4] = assay: Antifungal activity against Botrytis cinerea assessed as fungal growth inhibition at 0.38 mM incubated in dark for 48 hrs by microspectrophotometric analysis; assay type: functional, organism-based
Verticillium dahliae [5] = assay: Antifungal activity against Verticillium dahliae assessed as fungal growth inhibition at 0.76 mM incubated in dark for 48 hrs by microspectrophotometric analysis; assay type: functional, organism-based
Verticillium dahliae [6] = assay: Antifungal activity against Verticillium dahliae assessed as fungal growth inhibition at 0.38 mM incubated in dark for 48 hrs by microspectrophotometric analysis; assay type: functional, organism-based
Fusarium oxysporum [7] = assay: Antifungal activity against Fusarium oxysporum assessed as fungal growth inhibition at 0.76 mM incubated in dark for 48 hrs by microspectrophotometric analysis; assay type: functional, organism-based
Botrytis cinerea [8] = assay: Antifungal activity against Botrytis cinerea assessed as fungal growth inhibition at 10 to 400 ug/mL incubated in dark for 48 hrs by microspectrophotometric analysis; assay type: functional

COc1ccc(C2SSS[C@@]34C[C@]5(O)[C@H](O)C=C[C@@H](O)[C@@H]5ON3C(=O)[C@@H]2N(C)C4=O)c(O)c1OC (stereo partly drawn) was tested, and the “growth inhibition (GI)” value (Fusarium oxysporum [1]) was “Active”, the “growth inhibition (GI)” value (Verticillium dahliae [2]) was 45% and the “growth inhibition (GI)” value (Botrytis cinerea [3]) was “Active”. The “growth inhibition (GI)” value (Botrytis cinerea [4]) was “Active”, the “growth inhibition (GI)” value (Verticillium dahliae [5]) was “Active” and the “growth inhibition (GI)” value (Verticillium dahliae [6]) was “Active”. For the same compound, the “growth inhibition (GI)” value (Fusarium oxysporum [7]) was “Active” and the “growth inhibition (GI)” value (Botrytis cinerea [8]) was 57%.
